pEC50, pKi: −log10 of the molar value.
Legend:
Adenosine receptor A3 [1] = molecular target: T1, Adenosine receptor A3 (Homo sapiens, UniProt P0DMS8); assay: biochemical
T1 sequence (P0DMS8 whole entry): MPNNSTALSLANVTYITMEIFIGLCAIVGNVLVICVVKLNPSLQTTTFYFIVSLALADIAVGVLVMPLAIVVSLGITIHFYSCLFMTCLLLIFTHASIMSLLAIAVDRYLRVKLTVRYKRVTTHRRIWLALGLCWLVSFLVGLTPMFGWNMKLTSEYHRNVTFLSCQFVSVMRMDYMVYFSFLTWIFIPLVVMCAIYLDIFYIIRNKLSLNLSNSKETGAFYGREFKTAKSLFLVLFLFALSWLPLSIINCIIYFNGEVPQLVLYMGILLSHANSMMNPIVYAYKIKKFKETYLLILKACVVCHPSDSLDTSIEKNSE

Adenosine receptor A2a [2] = molecular target: T2, Adenosine receptor A2a (Homo sapiens, UniProt P29274); assay: Displacement of [3H]CGS21680 from recombinant human A2AAR expressed in HEK293 cell membranes at 10 uM measured after 60 mins by liquid scintillation counting method relative to control
T2 sequence (P29274 whole entry): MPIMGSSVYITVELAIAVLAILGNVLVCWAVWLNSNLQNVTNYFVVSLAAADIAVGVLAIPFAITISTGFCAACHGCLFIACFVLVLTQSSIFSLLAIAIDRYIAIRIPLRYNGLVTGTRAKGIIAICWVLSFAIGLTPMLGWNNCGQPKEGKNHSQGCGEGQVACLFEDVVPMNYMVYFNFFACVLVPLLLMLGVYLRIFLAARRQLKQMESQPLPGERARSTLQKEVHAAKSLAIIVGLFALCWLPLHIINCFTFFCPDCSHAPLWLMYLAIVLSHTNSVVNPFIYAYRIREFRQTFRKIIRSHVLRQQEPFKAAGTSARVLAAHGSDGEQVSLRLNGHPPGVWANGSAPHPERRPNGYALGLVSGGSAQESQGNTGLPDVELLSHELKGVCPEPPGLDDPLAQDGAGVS

Adenosine receptor A3 [3] = molecular target: T3, Adenosine receptor A3 (Mus musculus, UniProt Q61618); assay: biochemical
T3 sequence (Q61618 whole entry): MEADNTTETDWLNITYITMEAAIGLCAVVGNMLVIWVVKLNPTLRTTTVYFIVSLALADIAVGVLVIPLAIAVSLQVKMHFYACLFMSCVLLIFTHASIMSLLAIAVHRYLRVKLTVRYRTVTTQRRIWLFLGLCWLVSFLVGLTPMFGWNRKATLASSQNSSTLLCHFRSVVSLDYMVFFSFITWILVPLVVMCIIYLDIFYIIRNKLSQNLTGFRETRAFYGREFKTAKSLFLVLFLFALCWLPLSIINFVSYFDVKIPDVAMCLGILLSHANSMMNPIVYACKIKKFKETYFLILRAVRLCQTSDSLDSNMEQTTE

[4] = molecular target: T4, Adenosine receptor A1 (Homo sapiens) (UniProt P30542); assay: Displacement of [3H]R-PIA from recombinant human A1AR expressed in HEK293 cell membranes at 10 uM measured after 60 mins by liquid scintillation counting method relative to control
T4 sequence (whole entry): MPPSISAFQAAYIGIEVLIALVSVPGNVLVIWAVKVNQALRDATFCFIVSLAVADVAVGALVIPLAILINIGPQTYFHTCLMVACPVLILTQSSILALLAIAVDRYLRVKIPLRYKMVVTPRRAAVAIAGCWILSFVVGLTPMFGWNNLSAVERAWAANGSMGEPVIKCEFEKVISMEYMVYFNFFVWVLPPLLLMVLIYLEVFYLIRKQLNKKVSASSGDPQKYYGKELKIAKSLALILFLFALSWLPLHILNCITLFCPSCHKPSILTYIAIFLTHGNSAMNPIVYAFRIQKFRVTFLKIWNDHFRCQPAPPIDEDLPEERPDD

Adenosine receptor A1 [5] = molecular target: T5, Adenosine receptor A1 (Homo sapiens, UniProt P30542); assay: Displacement of [3H]R-PIA from recombinant human A1AR expressed in HEK293 cell membranes measured after 60 mins by liquid scintillation counting method
T5 sequence (P30542 whole entry): T4 sequence (whole entry)

[6] = molecular target: T6, Adenosine receptor A3 (Homo sapiens) (UniProt P0DMS8); assay: Partial agonist activity at recombinant human A3AR expressed in HEK293 cells assessed as inhibition of forskolin-stimulated cAMP accumulation by measuring residual cAMP level measured after 30 mins in presence of A2BAR blocker PSB-603 by Glo-sensor assay relative to control; assay type: functional, cell-based
T6 sequence (whole entry): T1 sequence (P0DMS8 whole entry)

Adenosine receptor A3 [7] = molecular target: T1, Adenosine receptor A3; assay: Partial agonist activity at recombinant human A3AR expressed in HEK293 cells assessed as inhibition of forskolin-stimulated cAMP accumulation measured after 30 mins in presence of A2BAR blocker PSB-603 by Glo-sensor assay; assay type: functional, cell-based
[8] = molecular target: T6, Adenosine receptor A3 (Homo sapiens); assay: Partial agonist activity at recombinant human A3AR expressed in HEK293 cells assessed as inhibition of forskolin-stimulated cAMP accumulation at 10 uM measured after 30 mins in presence of A2BAR blocker PSB-603 by Glo-sensor assay relative to Cl-IB-MECA; assay type: functional, cell-based
Adenosine receptor A1 [9] = molecular target: T7, Adenosine receptor A1 (Mus musculus, UniProt Q60612); assay: Displacement of [3H]R-PIA from recombinant mouse A1AR expressed in HEK293 cell membranes measured after 60 mins by liquid scintillation counting method
T7 sequence (Q60612 whole entry): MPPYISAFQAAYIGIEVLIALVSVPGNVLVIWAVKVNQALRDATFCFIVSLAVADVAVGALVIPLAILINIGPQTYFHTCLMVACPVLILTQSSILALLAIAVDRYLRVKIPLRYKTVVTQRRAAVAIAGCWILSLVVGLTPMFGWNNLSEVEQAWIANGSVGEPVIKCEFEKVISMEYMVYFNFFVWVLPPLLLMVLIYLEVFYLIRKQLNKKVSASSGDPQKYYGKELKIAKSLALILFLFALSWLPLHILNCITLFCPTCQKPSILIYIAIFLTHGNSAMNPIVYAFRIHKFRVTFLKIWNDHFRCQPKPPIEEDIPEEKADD

Adenosine receptor A2a [10] = molecular target: T2, Adenosine receptor A2a; assay: Displacement of [3H]CGS21680 from recombinant human A2AAR expressed in HEK293 cell membranes measured after 60 mins by liquid scintillation counting method
[11] = molecular target: T8, Adenosine receptor A3 (Mus musculus) (UniProt Q61618); assay: Partial agonist activity at recombinant mouse A3AR expressed in HEK293 cell membranes assessed as stimulation of [35S]GTPgammaS binding measured after 2 hrs in presence of A2BAR blocker PSB-603 by liquid scintillation counting analysis relative to adenosine-5'-Nethyluronamide; assay type: functional
T8 sequence (whole entry): T3 sequence (Q61618 whole entry)

Translocator protein = Translocator protein (Homo sapiens, UniProt P30536); assay: Inhibition of TSPO (unknown origin)
Chain of Translocator protein (P30536 whole entry): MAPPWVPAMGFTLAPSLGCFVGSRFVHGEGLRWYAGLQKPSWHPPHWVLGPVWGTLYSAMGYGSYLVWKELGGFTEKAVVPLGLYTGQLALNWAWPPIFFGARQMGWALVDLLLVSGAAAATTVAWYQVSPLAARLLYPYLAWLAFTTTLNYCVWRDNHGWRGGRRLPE

| SMILES | pKi (Adenosine receptor A3 [1]) | inhibition (Adenosine receptor A2a [2]) | pKi (Adenosine receptor A3 [3]) | inhibition [4] | also measured |
| --- | --- | --- | --- | --- | --- |
| COc1cc(CCNc2nc(C#Cc3ccc(F)cc3)nc3c2ncn3[C@H]2[C@H](O)[C@H](O)[C@@H]3C[C@@H]32)ccc1O | 8.19 | 51% | 7.26 | 39% |  |
| O[C@@H]1[C@H](O)[C@@H]2C[C@@H]2[C@H]1n1cnc2c(NCCc3cccc(F)c3)nc(C#Cc3ccc(F)s3)nc21 | 7.25 | 48% | 6.39 |  | pKi (Adenosine receptor A1 [5]): 5.64 |
| Nc1ccc(CCNc2nc(C#Cc3ccccc3)nc3c2ncn3[C@H]2[C@H](O)[C@H](O)[C@@H]3C[C@@H]32)cc1 | 7.85 | 26% | 7.22 | 30% |  |
| COc1cc(CCNc2nc(C#Cc3ccc(Cl)s3)nc3c2ncn3[C@H]2[C@H](O)[C@H](O)[C@@H]3C[C@@H]32)ccc1O | 8.02 | 38% | 7.13 |  | pKi (Adenosine receptor A1 [5]): 6.19 |
| Oc1ccc(CCNc2nc(C#Cc3ccccc3)nc3c2ncn3[C@H]2[C@H](O)[C@H](O)[C@@H]3C[C@@H]32)cc1 | 7.34 | 32% | 7.12 | 29% |  |
| O[C@@H]1[C@H](O)[C@@H]2C[C@@H]2[C@H]1n1cnc2c(NCCc3ccccc3)nc(C#Cc3ccc(Cl)s3)nc21 | 8.09 | 46% | 6.00 | 10% | Emax [6]: 37.6%; pEC50 (Adenosine receptor A3 [7]): 5.62; Emax [8]: 80% |
| Oc1ccc(CCNc2nc(C#Cc3ccccc3)nc3c2ncn3[C@H]2[C@H](O)[C@H](O)[C@@H]3C[C@@H]32)cc1F | 8.04 | 17% | 7.21 | 44% |  |
| O[C@@H]1[C@H](O)[C@@H]2C[C@@H]2[C@H]1n1cnc2c(NCCc3ccc(F)c(F)c3)nc(C#Cc3ccc(Cl)s3)nc21 | 7.33 | 57% | 5.60 | 28% |  |
| COc1ccc(CCNc2nc(C#Cc3ccccc3)nc3c2ncn3[C@H]2[C@H](O)[C@H](O)[C@@H]3C[C@@H]32)cc1O | 8.16 | 27% | 6.91 | 49% |  |
| COc1cc(CCNc2nc(C#Cc3cccnc3)nc3c2ncn3[C@H]2[C@H](O)[C@H](O)[C@@H]3C[C@@H]32)ccc1O | 8.17 | 39% | 6.81 | 36% |  |
| O[C@@H]1[C@H](O)[C@@H]2C[C@@H]2[C@H]1n1cnc2c(NCCc3ccccc3)nc(C#Cc3ccccc3Cl)nc21 |  |  | 6.01 |  |  |
| COc1cc(CCNc2nc(C#Cc3ccccc3F)nc3c2ncn3[C@H]2[C@H](O)[C@H](O)[C@@H]3C[C@@H]32)ccc1O | 8.27 |  | 7.67 |  | pKi (Adenosine receptor A1 [9]): 6.21; pKi (Adenosine receptor A2a [10]): 5.23; pKi (Adenosine receptor A1 [5]): 6.73 |
| COc1cc(CCNc2nc(I)nc3c2ncn3[C@H]2[C@H](O)[C@H](O)[C@@H]3C[C@@H]32)ccc1O | 8.04 | 49% | 7.03 | 50% |  |
| O[C@@H]1[C@H](O)[C@@H]2C[C@@H]2[C@H]1n1cnc2c(NCCc3cccc(F)c3)nc(C#Cc3ccccc3)nc21 | 7.44 | 27% | 6.58 |  | pKi (Adenosine receptor A1 [5]): 5.57 |
| CCNC(=O)[C@H]1O[C@@H](n2cnc3c(N)ncnc32)[C@H](O)[C@@H]1O |  |  |  |  | Emax [11]: 100% |
| O[C@@H]1[C@H](O)[C@@H]2C[C@@H]2[C@H]1n1cnc2c(NCCc3cccc(Cl)c3)nc(C#Cc3ccc(Cl)s3)nc21 | 7.23 | 59% | 6.27 | 39% |  |
| COc1cc(CCNc2nc(C#Cc3ccc(F)c(F)c3)nc3c2ncn3[C@H]2[C@H](O)[C@H](O)[C@@H]3C[C@@H]32)ccc1O | 7.89 | 33% | 7.12 |  | pKi (Adenosine receptor A1 [5]): 6.47 |
| COc1ccc(CCNc2nc(C#Cc3ccccc3)nc3c2ncn3[C@H]2[C@H](O)[C@H](O)[C@@H]3C[C@@H]32)cc1OC | 7.79 | 28% | 6.48 |  | pKi (Adenosine receptor A1 [5]): 6.68 |
| O[C@@H]1[C@H](O)[C@@H]2C[C@@H]2[C@H]1n1cnc2c(N[C@H]3C[C@@H]3c3ccccc3)nc(C#Cc3ccc(Cl)s3)nc21 | 7.09 | 44% | 5.94 | 32% |  |
| COc1cc(CCNc2nc(C#Cc3ccc(Br)s3)nc3c2ncn3[C@H]2[C@H](O)[C@H](O)[C@@H]3C[C@@H]32)ccc1O | 8.49 | 38% | 7.59 | 15% | Emax [6]: 61%; pKi (Adenosine receptor A1 [9]): 5.55; pEC50 (Adenosine receptor A3 [7]): 6.16; Emax [8]: 50% |
| COc1cc(CCNc2nc(C#Cc3cccc(F)c3)nc3c2ncn3[C@H]2[C@H](O)[C@H](O)[C@@H]3C[C@@H]32)ccc1O | 8.33 | 51% | 7.14 | 38% |  |
| O[C@@H]1[C@H](O)[C@@H]2C[C@@H]2[C@H]1n1cnc2c(NCCc3cccc(F)c3)nc(C#Cc3ccc(Cl)s3)nc21 | 7.37 | 55% | 6.31 | 31% | pKi (Translocator protein): 6.70 |
| Cc1cccc(CCNc2nc(C#Cc3ccc(Cl)s3)nc3c2ncn3[C@H]2[C@H](O)[C@H](O)[C@@H]3C[C@@H]32)c1 | 6.97 | 50% | 6.17 | 29% |  |
| Oc1ccc(CCNc2nc(C#Cc3ccccc3)nc3c2ncn3[C@H]2[C@H](O)[C@H](O)[C@@H]3C[C@@H]32)cc1O | 7.31 | 27% | 7.40 | 28% | pKi (Adenosine receptor A1 [9]): 5.85 |
